In paper PMC7756583, “Hydroxamic Acids Immobilized on Resins (HAIRs): Synthesis of Dual‐Targeting HDAC Inhibitors and HDAC Degraders (PROTACs)” (Angewandte Chemie (International Ed. in English), 2020):
Several values for one entry are separate records, joined by “and”; a condition that tells them apart may be missing. Equal entries are not always repeated. Entries after “also recorded” stand apart in the source; their conditions may differ. Where two headings read alike, the source gives them in different places.

Tests used:
[1] = system: human primary glioblastoma cell line U87; assay: MTT cell viability assay, U87; format: cell-based; settings: 72 h, read-out: Antiproliferative Effect IC50 U87
[2] = system: human primary glioblastoma cell line U251; assay: MTT cell viability assay, U251; format: cell-based; settings: for IC50: Homo sapiens, read-out: Antiproliferative Effect IC50 U251
[3] = system: human tongue squamous cell carcinoma cell line Cal27; assay: MTT cell viability assay, Cal27; format: cell-based; settings: for IC50: Homo sapiens, read-out: Antiproliferative Effect IC50 Cal27
HDAC6 [4] = biological target: T1, HDAC6 (Homo sapiens, UniProt Q9UBN7); assay: In-vitro human HDAC6 fluorogenic inhibition assay (ZMAL substrate); format: biochemical
T1 sequence (Q9UBN7 1-1215): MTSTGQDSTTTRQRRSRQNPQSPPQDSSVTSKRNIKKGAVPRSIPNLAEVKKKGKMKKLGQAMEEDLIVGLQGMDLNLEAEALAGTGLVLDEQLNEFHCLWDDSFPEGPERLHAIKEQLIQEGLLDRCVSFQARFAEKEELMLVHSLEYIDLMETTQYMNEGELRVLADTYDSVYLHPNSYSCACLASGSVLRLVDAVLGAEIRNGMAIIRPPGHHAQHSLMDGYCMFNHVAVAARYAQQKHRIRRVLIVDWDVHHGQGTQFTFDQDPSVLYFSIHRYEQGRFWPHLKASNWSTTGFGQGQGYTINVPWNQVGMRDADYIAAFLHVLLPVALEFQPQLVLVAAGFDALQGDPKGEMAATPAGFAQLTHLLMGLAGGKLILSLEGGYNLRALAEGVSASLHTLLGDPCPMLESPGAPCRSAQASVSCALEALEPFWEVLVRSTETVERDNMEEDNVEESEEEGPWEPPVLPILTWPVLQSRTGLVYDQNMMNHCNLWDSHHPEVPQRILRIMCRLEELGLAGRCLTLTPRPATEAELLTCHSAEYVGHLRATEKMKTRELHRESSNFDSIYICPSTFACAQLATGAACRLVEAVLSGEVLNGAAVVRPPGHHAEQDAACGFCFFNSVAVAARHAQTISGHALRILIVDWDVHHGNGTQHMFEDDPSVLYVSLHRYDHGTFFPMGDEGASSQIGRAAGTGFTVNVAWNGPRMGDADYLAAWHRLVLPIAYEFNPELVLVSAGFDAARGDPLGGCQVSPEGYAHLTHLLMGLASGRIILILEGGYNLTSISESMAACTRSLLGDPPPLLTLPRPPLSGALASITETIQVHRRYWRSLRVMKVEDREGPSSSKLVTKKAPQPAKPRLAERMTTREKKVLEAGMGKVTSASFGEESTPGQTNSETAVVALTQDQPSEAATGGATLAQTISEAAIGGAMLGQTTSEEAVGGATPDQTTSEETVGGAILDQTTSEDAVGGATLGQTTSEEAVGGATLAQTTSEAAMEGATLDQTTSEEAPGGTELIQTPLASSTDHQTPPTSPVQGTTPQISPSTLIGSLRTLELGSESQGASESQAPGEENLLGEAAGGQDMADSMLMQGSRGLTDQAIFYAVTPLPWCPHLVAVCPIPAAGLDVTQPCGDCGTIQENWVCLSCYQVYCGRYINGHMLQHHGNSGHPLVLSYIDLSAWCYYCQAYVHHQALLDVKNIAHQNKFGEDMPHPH

HDAC1 [5] = biological target: T2, HDAC1 (Homo sapiens, UniProt Q13547); assay: In-vitro human HDAC1 fluorogenic inhibition assay (ZMAL substrate); format: biochemical
[6] = system: γ-H2AX formation in Cal27 cells; assay: γ-H2AX expression DNA damage assay; format: cell-based, human
[7] = system: caspase 3/7 activation in Cal27 cells; format: cell-based, human
human recombinant HDAC2 = human recombinant HDAC2 (Homo sapiens, UniProt Q92769); assay: In-vitro human HDAC2 fluorogenic inhibition assay (ZMAL substrate); format: biochemical
HDAC8 recombinant enzyme = biological target: T3, HDAC8 recombinant enzyme (Homo sapiens, UniProt Q9BY41); assay: In-vitro human HDAC8 assay (Boc-Lys-(TFa)-AMC substrate); format: biochemical
T3 sequence (Q9BY41 1-377): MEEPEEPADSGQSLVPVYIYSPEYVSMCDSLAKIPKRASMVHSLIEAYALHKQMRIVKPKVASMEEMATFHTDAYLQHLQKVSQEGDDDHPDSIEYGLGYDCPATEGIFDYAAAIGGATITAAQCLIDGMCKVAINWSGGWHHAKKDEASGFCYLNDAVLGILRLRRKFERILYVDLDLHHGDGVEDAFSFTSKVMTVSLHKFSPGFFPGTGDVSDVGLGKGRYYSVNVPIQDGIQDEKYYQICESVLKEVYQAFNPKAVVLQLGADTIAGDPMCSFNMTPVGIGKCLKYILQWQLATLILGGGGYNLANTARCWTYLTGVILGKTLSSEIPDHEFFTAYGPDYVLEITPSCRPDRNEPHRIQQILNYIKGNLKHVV

human recombinant HDAC3 = human recombinant HDAC3 (Homo sapiens, UniProt O15379); assay: In-vitro human HDAC3 fluorogenic inhibition assay (ZMAL substrate); format: biochemical
Cal27 cells = format: cell-based, human
HDAC1 [8] = biological target: T2, HDAC1; assay: Immunoblot, HDAC1 degradation in HL60 cells; format: cell-based; settings: 0.1 μM, 1 μM and 10 μM, 48 hours
HDAC6 [9] = biological target: T1, HDAC6; assay: Immunoblot, HDAC6 degradation in HL60 cells; format: cell-based; settings: 0.1 μM, 1 μM and 10 μM, 48 hours
[10] = system: α-tubulin acetylation (marker of reduced HDAC6 activity); assay: Immunoblot, acetylated α-tubulin in HL60 cells; format: cell-based
[11] = system: histone H3 acetylation (marker of reduced HDAC1-3 activity); assay: Immunoblot, acetyl histone H3 in HL60 cells; format: cell-based
[12] = MTT assay, n≥3, each in triplicate wells
[13] = U-251, MTT assay, 72 h, n≥3, each in triplicate wells, n.e.: no effect up to 100 μM
[14] = CAL-27, MTT assay, 72 h, n≥3, each in triplicate wells
[15] = fluorogenic assay, n≥2, each in duplicate wells, read-out: Target Inhibition IC50 HDAC6
[16] = fluorogenic assay, n≥2, each in duplicate wells, read-out: Target Inhibition IC50 HDAC1
[17] = n≥2, each in duplicate wells, read-out: HDAC Inhibition IC50 HDAC 2
[18] = n≥2, each in duplicate wells, read-out: HDAC Inhibition IC50 HDAC 3

T2 sequence (Q13547 whole entry): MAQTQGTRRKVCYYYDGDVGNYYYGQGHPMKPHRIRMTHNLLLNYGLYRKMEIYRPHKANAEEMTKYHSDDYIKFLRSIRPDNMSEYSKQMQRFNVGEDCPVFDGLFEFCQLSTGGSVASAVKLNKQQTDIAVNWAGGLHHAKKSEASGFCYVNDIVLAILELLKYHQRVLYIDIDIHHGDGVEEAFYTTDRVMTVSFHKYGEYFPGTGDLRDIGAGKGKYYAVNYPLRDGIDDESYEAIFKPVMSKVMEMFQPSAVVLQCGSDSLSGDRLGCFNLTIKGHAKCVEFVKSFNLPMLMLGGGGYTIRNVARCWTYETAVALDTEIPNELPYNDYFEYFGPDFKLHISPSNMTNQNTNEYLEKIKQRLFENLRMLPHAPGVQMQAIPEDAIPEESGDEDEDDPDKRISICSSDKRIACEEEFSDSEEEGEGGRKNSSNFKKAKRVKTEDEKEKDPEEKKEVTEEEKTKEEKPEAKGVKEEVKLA
Sequence of human recombinant HDAC2 (Q92769 whole entry): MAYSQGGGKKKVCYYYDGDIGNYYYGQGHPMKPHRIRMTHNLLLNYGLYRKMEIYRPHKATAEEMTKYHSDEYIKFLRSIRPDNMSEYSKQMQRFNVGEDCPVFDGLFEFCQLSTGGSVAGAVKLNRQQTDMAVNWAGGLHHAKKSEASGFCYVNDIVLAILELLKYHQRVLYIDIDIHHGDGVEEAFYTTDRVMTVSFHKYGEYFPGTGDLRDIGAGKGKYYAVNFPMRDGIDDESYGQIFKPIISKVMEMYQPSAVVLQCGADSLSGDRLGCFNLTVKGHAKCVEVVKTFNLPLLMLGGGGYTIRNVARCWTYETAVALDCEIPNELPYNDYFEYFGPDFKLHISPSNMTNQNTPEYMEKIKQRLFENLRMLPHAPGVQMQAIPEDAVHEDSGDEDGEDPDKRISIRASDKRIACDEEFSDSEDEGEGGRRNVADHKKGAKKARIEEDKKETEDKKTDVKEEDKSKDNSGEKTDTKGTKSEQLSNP
Sequence of human recombinant HDAC3 (O15379 whole entry): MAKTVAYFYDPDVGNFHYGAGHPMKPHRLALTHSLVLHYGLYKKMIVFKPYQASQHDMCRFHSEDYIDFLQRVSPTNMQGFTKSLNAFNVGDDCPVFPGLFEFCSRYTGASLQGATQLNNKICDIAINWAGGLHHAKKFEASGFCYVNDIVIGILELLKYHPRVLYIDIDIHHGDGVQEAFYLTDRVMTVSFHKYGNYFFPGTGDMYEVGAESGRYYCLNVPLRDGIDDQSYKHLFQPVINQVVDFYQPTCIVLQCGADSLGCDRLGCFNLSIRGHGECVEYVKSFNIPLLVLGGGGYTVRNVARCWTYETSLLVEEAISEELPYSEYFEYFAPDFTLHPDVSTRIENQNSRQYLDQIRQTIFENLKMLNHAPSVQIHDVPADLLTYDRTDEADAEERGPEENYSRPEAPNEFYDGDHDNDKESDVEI
Sequence of human recombinant HDAC3 (Q9Y618 395-489 partner limits assumed): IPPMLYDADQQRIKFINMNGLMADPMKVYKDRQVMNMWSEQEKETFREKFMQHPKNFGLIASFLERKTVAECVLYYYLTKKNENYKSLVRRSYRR

SMILES	IC50 [1]	IC50 ([2]; U-251, 72 h)	IC50 ([3]; CAL-27, 72 h)	IC50 [1, 12]	IC50 [2, 13]	IC50 [3, 14]	IC50 (HDAC6 [4]; [15])	IC50 (HDAC1 [5]; [16])	IC50 (HDAC6 [4])	IC50 (HDAC1 [5])	further results
O=C(O)CCCc1ccc(N(CCCl)CCCl)cc1 [CAB, chlorambucil, reference compound]	86.3 ± 17.5 µM	48.7 ± 11.9 µM	23.7 ± 2.26 µM								
O=C(NO)c1ccc(CNC(=O)c2ncn3c(=O)n(CCCl)nnc23)cc1 [Compound 3 b]				147 ± 19.7 µM	44.5 ± 8.94 µM	16.8 ± 3.62 µM	0.023 ± 0.002 µM	0.394 ± 0.02 µM			
O=C(CCCc1ccc(N(CCCl)CCCl)cc1)NCc1ccc(C(=O)NO)cc1 [Compound 3 c]	23.9 ± 3.41 µM	22 ± 3.09 µM	6.89 ± 1.04 µM						0.032 ± 0.003 µM	0.518 ± 0.065 µM	
Cn1nnc2c(C(=O)NCCCC(=O)NO)ncn2c1=O [Compound 3 d]				323 ± 107 µM		97.1 ± 16.3 µM	4.99 ± 0.129 µM	35.1 ± 5.32 µM			Antiproliferative Effect IC50 U251 ([2]; MTT assay, 72 h, n≥3, each in triplicate wells, n.e.: no effect up to 100 μM): n.e.
O=C(CCCNC(=O)c1ncn2c(=O)n(CCCl)nnc12)NO [Compound 3 e]				413 ± 77.7 µM	461 ± 89.9 µM	87.8 ± 9.52 µM	2.37 ± 0.086 µM	16.2 ± 0.07 µM			
O=C(CCCNC(=O)CCCc1ccc(N(CCCl)CCCl)cc1)NO [Compound 3 f]	46.1 ± 5.71 µM	20.1 ± 2.41 µM	8.67 ± 1.31 µM						4.6 ± 0.082 µM	8.21 ± 0.183 µM	
O=C(CCCCCNC(=O)c1ncn2c(=O)n(CCCl)nnc12)NO [Compound 3 g]				262 ± 75.6 µM	140 ± 17.8 µM	29 ± 3.73 µM	0.094 ± 0.002 µM	0.681 ± 0.015 µM			
O=C(CCCCCNC(=O)CCCc1ccc(N(CCCl)CCCl)cc1)NO [Compound 3 h]	43.9 ± 15.3 µM	25.1 ± 3.27 µM	7.5 ± 0.62 µM						0.121 ± 0.008 µM	0.444 ± 0.053 µM	
Cn1nnc2c(C(=O)NCCCCCCC(=O)NO)ncn2c1=O [Compound 3 i]				166 ± 33.6 µM	86.2 ± 13.1 µM	10.2 ± 1.54 µM	0.031 ± 0.002 µM	0.161 ± 0.006 µM			
O=C(CCCCCCNC(=O)c1ncn2c(=O)n(CCCl)nnc12)NO [Compound 3 j]				122 ± 56 µM	48.2 ± 7.35 µM	9.9 ± 1.24 µM	0.038 ± 0.004 µM	0.143 ± 0.005 µM			
O=C(CCCCCCNC(=O)CCCc1ccc(N(CCCl)CCCl)cc1)NO [Compound 3 k]	39.2 ± 7.16 µM	27 ± 3.55 µM	6.17 ± 0.51 µM						0.063 ± 0.001 µM	0.244 ± 0.041 µM	
Cn1nnc2c(C(=O)NCc3ccc(/C=C/C(=O)NO)cc3)ncn2c1=O [Compound 3 l]				141 ± 20.7 µM	97.8 ± 9.07 µM	15.4 ± 1.61 µM	0.072 ± 0.008 µM	0.146 ± 0.008 µM			γ-H2AX formation ([6]; Cal27 cells, IC50 (from MTT assay), 24 h): not different from control; γ-H2AX formation ([6]; Cal27 cells, fivefold IC50 (from MTT assay), 24 h): only weak DNA damage
O=C(/C=C/c1ccc(CNC(=O)CCCc2ccc(N(CCCl)CCCl)cc2)cc1)NO [Compound 3 n]	19.8 ± 3.16 µM	14.5 ± 1.59 µM	2.68 ± 0.31 µM						0.062 ± 0.001 µM	0.151 ± 0.021 µM	caspase 3/7 activation [7]: significantly more effective than the sum of the effects of 3 o and CAB; also recorded: significantly stronger than the sum of the effects of even 100 μM CAB and 30 μM 3 o; combination index (CI) [7]: 0,92 and 0,69 and 0,70; IC50 (human recombinant HDAC2): 0.432 ± 0.015 µM; γ-H2AX formation [6]: significant increase in γ‐H2AX formation; also recorded: significantly more active than 3 l and 3 m; also recorded: significantly more effective than the sum of the effects of 3 o and CAB; also recorded: significantly greater DNA damage (γ‐H2AX assay) than 3 o; improved antiproliferative effect in comparison to parent compound CAB [3]: up to 10 fold; IC50 (HDAC8 recombinant enzyme): 4.04 ± 0.28 µM; IC50 (human recombinant HDAC3): 0.187 ± 0.009 µM; induction of apoptosis (subG1 nuclei) (Cal27 cells): more potent than 3 o, cisplatin, vorinostat, and CAB in inducing apoptosis
O=C(/C=C/c1ccc(CNC(=O)CCCc2ccccc2)cc1)NO [Compound 3 o]				27.7 ± 6.52 µM	23.9 ± 3.51 µM	6.59 ± 0.44 µM	0.066 ± 0.001 µM	0.156 ± 0.008 µM			IC50 (human recombinant HDAC2; [17]): 0.194 ± 0.034 µM; IC50 (human recombinant HDAC3; [18]): 0.117 ± 0.02 µM
NC(=O)c1ncn2c(=O)n(CCCl)nnc12 [MTZ, mitozolomide, reference compound]				57.4 ± 9.51 µM	84.5 ± 7.3 µM	3.56 ± 0.29 µM					
O=C(CCCCCCNC(=O)c1ccc(NC(=O)COCCOCCNC(=O)COc2cccc3c2C(=O)N(C2CCC(=O)NC2=O)C3=O)cc1)NO (stereo not shown) [PROTAC 4]							0.027 µM	0.174 ± 0.009 µM			IC50 (human recombinant HDAC2; [17]): 0.248 ± 0.049 µM; HDAC1 degradation (Western blot) (HDAC1 [8]): also HDAC1 in a concentration dependent manner; IC50 (HDAC8 recombinant enzyme; read-out: HDAC Inhibition IC50 HDAC 8): 3.42 ± 0.32 µM; IC50 (human recombinant HDAC3; [18]): 0.159 ± 0.031 µM; HDAC6 degradation (Western blot) (HDAC6 [9]): able to degrade especially HDAC6; acetylation of α-tubulin [10]: significant hyperacetylation; acetylation of histone H3 [11]: significant hyperacetylation
Cn1nnc2c(C(N)=O)ncn2c1=O [TMZ, temozolomide, reference compound]				144 ± 15.6 µM	457 ± 57.3 µM	56.8 ± 5.05 µM					
Cn1c(CCCCCCC(=O)NO)nc2cc(N(CCCl)CCCl)ccc21 [tinostamustine, reference compound]	8.32 ± 0.55 µM	10.2 ± 0.62 µM	2.94 ± 0.07 µM						0.011 ± 0.001 µM	0.047 ± 0.003 µM	
